This note sets out measurements from ChEMBL document CHEMBL5465560, “Selectivity Literature for EUbOPEN Chemogenomic Library” (2024).

The target of assay [1] is Rho-associated protein kinase 1 (Homo sapiens) (UniProt Q13464). The assay can be described thus: Selectivity interaction (Kinase panel (Z-LYTE Assay)) EUB0001632a ROCK1. As to conditions: at 10 µM.
Assay [2] addresses T1, Bone morphogenetic protein receptor type-2 (Homo sapiens) (UniProt Q13873).
T1 sequence (whole entry): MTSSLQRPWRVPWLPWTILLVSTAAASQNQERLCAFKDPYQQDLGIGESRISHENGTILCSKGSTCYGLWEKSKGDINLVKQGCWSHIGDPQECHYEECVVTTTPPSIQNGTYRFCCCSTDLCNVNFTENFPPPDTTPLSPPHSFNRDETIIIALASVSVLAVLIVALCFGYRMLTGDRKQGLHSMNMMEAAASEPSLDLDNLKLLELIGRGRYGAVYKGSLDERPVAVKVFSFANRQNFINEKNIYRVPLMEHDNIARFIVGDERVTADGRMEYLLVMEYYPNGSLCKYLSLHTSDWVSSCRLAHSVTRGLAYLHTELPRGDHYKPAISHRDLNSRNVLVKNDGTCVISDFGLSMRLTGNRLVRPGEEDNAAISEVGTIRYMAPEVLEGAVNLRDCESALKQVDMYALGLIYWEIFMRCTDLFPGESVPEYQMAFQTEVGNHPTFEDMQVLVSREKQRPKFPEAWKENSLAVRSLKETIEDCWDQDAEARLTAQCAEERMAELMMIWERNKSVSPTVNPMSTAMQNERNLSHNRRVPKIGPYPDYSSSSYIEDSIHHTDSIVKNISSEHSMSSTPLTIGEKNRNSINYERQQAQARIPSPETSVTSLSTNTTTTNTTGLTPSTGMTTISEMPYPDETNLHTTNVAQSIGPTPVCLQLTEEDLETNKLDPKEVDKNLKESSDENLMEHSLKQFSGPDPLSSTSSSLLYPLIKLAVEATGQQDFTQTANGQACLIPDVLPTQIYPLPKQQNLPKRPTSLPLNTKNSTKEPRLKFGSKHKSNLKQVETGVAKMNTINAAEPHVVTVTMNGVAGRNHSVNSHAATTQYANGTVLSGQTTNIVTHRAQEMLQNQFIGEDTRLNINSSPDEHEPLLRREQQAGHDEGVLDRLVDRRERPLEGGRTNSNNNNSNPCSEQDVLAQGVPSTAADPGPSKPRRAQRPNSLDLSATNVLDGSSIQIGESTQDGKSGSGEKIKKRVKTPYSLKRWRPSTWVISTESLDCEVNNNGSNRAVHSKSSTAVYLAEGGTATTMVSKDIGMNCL
As to the kind of experiment: Selectivity interaction (KinomeScan (DiscoverX)) EUB0000595a BMPR2. As to conditions: at 10 µM.

In assay [3] the target is Dual specificity tyrosine-phosphorylation-regulated kinase 1A (Homo sapiens, UniProt Q13627). As to the kind of experiment: Selectivity interaction (KinomeScan (DiscoverX)) EUB0001619a DYRK1A. The following applies: at 1 µM.
Assay [4] deals with Serine/threonine-protein kinase/endoribonuclease IRE1 (Homo sapiens) (UniProt O75460). As to the kind of experiment: Selectivity interaction (KinomeScan (DiscoverX)) EUB0001619a ERN1. As to conditions: at 1 µM.
Assay [5] addresses Tyrosine-protein kinase Fgr (Homo sapiens) (UniProt P09769). As to the kind of experiment: Selectivity interaction (KinomeScan (DiscoverX)) EUB0000045b FGR.
Assay [6] has as its target MAP kinase-activated protein kinase 2 (Homo sapiens, UniProt P49137). As to the kind of experiment: Selectivity interaction (KinomeScan (DiscoverX)) EUB0001049a MAPKAPK2. As to conditions: at 1 µM.
Assay [7] addresses Tyrosine-protein kinase receptor Tie-1 (Homo sapiens) (UniProt P35590). The assay can be described thus: Selectivity interaction (KinomeScan (DiscoverX)) EUB0000655a TIE1. As to conditions: at 10 µM.
Assay [8] deals with Casein kinase I isoform gamma-3 (Homo sapiens) (UniProt Q9Y6M4). As to the kind of experiment: Selectivity interaction (KinomeScan (DiscoverX)) EUB0000092b CSNK1G3. As to conditions: at 10 µM.
Sequence of Casein kinase I isoform gamma-3 (Homo sapiens) (Q9Y6M4 whole entry, looked up, canonical isoform): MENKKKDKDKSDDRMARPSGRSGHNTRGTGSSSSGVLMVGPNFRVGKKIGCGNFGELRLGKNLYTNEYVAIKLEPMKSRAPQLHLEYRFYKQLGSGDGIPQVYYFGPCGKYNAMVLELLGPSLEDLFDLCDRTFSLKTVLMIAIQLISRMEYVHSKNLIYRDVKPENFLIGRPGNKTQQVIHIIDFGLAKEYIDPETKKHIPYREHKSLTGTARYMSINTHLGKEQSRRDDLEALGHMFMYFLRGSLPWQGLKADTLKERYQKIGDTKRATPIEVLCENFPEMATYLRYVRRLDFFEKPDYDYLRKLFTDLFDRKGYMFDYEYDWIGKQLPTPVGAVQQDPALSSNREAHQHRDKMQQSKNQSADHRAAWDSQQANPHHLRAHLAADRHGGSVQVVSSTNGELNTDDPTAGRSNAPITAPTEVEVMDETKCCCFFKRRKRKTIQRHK
For assay [9], the target named is T2, MAP/microtubule affinity-regulating kinase 4 (Homo sapiens) (UniProt Q96L34).
T2 sequence (whole entry): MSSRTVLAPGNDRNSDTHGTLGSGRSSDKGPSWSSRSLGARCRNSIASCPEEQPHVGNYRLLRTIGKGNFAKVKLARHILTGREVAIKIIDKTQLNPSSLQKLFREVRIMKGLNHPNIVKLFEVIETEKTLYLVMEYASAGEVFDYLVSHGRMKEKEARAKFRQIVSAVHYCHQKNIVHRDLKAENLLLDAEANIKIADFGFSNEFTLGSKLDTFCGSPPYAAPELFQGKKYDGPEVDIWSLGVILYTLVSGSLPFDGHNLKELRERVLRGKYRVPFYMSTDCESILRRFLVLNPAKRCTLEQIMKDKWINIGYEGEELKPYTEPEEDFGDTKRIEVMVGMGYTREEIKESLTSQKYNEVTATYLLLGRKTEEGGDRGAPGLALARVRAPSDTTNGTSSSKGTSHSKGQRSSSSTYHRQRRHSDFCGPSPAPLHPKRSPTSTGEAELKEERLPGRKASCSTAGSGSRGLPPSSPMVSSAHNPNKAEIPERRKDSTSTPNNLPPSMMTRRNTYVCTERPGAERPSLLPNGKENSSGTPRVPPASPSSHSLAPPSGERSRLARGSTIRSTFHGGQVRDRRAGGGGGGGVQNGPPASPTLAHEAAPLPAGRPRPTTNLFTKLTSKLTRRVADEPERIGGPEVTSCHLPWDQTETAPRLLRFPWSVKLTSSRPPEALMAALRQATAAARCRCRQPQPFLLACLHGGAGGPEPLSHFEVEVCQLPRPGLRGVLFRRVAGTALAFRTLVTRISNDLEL
As to the kind of experiment: Selectivity interaction (KinomeScan (DiscoverX)) EUB0000092b MARK4. As to conditions: at 10 µM.

Assay [10] has as its target STE20-like serine/threonine-protein kinase (Homo sapiens, UniProt Q9H2G2). As to the kind of experiment: Selectivity interaction (KinomeScan (DiscoverX)) EUB0000092b SLK. The following applies: at 10 µM.
Assay [11] has as its target Mitogen-activated protein kinase kinase kinase 20 (Homo sapiens) (UniProt Q9NYL2). As to the kind of experiment: Selectivity interaction (KinomeScan (DiscoverX)) EUB0001079a MAP3K20. The following applies: at 1 µM.

Sequence of Tyrosine-protein kinase Fgr (Homo sapiens) (P09769 2-529 limits assumed): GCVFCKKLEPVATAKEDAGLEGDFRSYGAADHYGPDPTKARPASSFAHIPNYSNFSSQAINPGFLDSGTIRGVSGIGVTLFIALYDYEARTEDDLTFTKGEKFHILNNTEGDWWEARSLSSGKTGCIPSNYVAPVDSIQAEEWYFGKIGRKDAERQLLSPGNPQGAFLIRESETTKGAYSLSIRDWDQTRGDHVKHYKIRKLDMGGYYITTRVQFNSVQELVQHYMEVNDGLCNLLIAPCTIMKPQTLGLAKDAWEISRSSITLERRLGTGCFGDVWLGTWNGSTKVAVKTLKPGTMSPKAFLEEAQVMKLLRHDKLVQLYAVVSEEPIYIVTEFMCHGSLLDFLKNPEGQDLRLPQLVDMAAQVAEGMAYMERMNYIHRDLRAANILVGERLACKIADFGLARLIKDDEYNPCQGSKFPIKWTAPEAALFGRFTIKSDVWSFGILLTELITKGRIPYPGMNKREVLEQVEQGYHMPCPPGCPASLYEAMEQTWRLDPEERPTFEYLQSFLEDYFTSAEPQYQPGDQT
Sequence of Mitogen-activated protein kinase kinase kinase 20 (Homo sapiens) (Q9NYL2 2-800 limits assumed): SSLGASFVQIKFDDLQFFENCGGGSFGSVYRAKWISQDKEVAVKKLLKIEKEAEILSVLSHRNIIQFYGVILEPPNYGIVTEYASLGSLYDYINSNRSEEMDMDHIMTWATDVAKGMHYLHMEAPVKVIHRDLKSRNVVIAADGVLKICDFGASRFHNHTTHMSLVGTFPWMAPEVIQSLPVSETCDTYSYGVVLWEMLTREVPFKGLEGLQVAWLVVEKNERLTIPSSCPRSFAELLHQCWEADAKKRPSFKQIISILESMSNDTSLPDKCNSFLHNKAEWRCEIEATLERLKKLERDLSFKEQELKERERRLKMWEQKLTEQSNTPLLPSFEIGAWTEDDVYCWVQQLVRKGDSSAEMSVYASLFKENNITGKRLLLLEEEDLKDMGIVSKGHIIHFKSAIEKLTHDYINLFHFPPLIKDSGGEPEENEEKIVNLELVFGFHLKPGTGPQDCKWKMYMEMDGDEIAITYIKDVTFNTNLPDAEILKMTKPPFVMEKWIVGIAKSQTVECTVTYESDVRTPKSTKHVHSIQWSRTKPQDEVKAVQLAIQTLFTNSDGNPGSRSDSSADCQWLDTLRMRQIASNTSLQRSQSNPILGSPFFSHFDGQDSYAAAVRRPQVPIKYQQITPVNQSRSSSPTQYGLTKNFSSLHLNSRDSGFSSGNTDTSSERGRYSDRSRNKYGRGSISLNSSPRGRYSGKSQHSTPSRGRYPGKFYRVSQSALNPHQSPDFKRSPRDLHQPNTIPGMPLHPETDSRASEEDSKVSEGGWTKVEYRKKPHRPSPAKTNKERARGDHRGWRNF
Sequence of Rho-associated protein kinase 1 (Homo sapiens) (Q13464 2-1354 limits assumed): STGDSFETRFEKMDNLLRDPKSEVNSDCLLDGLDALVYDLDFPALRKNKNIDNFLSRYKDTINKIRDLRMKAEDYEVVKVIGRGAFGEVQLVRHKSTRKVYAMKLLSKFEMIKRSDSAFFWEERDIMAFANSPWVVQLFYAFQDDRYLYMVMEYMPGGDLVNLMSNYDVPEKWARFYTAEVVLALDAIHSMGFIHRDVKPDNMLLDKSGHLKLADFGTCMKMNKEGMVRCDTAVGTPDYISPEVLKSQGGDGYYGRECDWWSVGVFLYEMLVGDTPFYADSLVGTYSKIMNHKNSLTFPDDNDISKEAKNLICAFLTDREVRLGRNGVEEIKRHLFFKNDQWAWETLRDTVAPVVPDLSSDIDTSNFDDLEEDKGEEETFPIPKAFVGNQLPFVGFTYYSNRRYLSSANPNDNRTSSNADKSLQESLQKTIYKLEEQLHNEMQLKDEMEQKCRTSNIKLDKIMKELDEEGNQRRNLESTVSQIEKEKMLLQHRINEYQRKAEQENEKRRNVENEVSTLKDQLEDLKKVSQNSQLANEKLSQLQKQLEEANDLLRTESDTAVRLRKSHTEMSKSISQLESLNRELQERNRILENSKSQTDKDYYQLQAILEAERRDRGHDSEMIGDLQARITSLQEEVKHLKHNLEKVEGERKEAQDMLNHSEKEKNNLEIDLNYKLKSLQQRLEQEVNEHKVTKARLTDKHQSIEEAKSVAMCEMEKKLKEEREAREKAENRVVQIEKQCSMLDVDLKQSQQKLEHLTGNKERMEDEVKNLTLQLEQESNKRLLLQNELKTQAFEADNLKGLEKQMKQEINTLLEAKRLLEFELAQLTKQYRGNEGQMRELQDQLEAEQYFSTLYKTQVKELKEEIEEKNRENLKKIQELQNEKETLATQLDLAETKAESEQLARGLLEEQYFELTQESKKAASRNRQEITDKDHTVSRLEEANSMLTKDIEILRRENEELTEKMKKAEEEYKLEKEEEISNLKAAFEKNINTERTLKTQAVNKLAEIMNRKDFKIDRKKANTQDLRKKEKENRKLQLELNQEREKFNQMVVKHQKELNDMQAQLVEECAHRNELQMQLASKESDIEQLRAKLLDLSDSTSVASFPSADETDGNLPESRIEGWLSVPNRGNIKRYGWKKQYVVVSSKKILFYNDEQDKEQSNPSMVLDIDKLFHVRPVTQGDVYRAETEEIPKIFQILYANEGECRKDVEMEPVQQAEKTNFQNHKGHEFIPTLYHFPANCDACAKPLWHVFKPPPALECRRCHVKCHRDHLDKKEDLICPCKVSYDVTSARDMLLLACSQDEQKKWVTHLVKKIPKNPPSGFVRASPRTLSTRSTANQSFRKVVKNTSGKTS
Sequence of Tyrosine-protein kinase receptor Tie-1 (Homo sapiens) (P35590 whole entry, canonical isoform): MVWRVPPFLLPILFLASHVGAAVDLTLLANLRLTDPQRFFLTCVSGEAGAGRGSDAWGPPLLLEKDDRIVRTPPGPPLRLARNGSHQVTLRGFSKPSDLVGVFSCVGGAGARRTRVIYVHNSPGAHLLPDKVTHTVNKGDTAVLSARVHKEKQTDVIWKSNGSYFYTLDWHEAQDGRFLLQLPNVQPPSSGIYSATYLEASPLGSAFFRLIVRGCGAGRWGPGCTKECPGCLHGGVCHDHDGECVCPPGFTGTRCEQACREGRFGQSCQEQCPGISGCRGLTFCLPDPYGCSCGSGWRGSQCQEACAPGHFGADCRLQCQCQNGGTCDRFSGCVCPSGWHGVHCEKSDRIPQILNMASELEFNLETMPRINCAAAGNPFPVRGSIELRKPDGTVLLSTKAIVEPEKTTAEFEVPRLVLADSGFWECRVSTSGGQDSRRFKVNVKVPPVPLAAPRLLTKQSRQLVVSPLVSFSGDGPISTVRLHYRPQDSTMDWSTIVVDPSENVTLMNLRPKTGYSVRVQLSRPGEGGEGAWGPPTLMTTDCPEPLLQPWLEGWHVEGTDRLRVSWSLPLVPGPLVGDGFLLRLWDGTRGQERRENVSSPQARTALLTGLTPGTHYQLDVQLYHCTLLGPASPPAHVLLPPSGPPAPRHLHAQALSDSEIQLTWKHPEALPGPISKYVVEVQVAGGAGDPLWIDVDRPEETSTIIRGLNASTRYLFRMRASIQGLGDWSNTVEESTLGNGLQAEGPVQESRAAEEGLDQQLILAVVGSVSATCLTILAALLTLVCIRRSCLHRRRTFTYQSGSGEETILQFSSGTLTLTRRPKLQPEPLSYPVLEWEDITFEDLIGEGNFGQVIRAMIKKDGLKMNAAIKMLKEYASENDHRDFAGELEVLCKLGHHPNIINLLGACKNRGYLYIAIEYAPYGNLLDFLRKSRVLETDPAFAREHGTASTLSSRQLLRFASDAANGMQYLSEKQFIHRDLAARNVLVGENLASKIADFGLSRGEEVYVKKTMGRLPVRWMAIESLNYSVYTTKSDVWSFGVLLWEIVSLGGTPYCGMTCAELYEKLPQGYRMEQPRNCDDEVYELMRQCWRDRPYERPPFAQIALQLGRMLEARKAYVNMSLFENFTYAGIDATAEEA
Sequence of MAP kinase-activated protein kinase 2 (P49137 whole entry, looked up): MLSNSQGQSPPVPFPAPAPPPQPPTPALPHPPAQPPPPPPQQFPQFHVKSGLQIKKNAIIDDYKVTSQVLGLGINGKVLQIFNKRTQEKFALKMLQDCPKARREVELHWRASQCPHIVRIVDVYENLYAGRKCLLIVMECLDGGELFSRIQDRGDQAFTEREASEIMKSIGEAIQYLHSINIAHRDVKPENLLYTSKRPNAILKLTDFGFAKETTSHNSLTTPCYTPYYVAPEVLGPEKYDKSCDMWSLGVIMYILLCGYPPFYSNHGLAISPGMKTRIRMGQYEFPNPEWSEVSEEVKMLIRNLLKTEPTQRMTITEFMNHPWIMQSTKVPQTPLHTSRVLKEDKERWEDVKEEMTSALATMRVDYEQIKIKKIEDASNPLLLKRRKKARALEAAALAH

For `Cn1cc(-n2cnc3c(NCc4nc5cc(Cl)c(Cl)cc5[nH]4)nc(N4CCOCC4)nc32)cn1`, in [1], the % of control is -2.74%.
`COCC(=O)NC/C=C/c1ccc2ncnc(Nc3ccc(Oc4ccc(C)nc4)c(C)c3)c2c1` [CP-724714]: the % of control in [2] was determined as 74%.
As for `N#Cc1cccc(-c2c[nH]c3ncnc(N4CCOCC4)c23)c1`, the % of control in [3] is 78%; in assay [4], 74%.
Take `C=CC(=O)Nc1cc(-n2c(=O)ccc3cnc4ccc(-c5ccc(NS(C)(=O)=O)cc5)cc4c32)ccc1C`: the % of control is 72% in assay [5] (at 1 µM) and 79% in assay [5] (at 10 µM).
Regarding `COc1cc(Nc2nc(C)cc(-c3cnn4nc(OC)ccc34)n2)cc(C(F)(F)F)c1`, the % of control in assay [6] is 52%.
On to `CN(C)CCOc1ccc(-c2nc(-c3ccncc3)c(-c3ccc4c(c3)CC/C4=N\O)[nH]2)cc1`, for which the % of control in assay [7] was 44%.
Regarding `CCC(=O)N1CCN(c2ccc(-n3c(=O)ccc4cnc5ccc(-c6cnc7ccccc7c6)cc5c43)cc2C(F)(F)F)CC1`, the % of control was 100% in assay [8], 100% in assay [9] and 94% in assay [10].
Regarding `Nc1cnc(N2CCc3cc(S(=O)(=O)Nc4c(F)cc(Cl)cc4F)cc(N4CCCC4=O)c32)nc1` [TP-020n], in assay [11], the % of control turned out to be 95%.
